Laboratory results taken from US9999619B2, “Piperidin-4-yl azetidine derivatives as JAK1 inhibitors” (Incyte Corporation, priority 2010, dated 2018).
Where a name gives a salt, the structure may show the parent alone.

Legend:
Assay type in all cases: biochemical
[1] = target: human JAK1 (a.a. 837-1142); test: In vitro JAK kinase assay (HTRF, phosphorylation of a biotinylated peptide), JAK1; settings: ratio of JAK2 IC50 to JAK1 IC50, measured at 1 mM ATP
Procedure, shortened: (§1)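 N-terminally His-tagged catalytic domains, baculovirus-expressed in insect cells and purified, were used as enzyme. Reactions ran 1 hr at room temperature and were stopped with a mix of 45 mM EDTA, 300 nM SA-APC and 6 nM Eu-Py20. The HTRF signal was read after 40 min of antibody binding.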

[2] = target: human JAK1 (a.a. 837-1142) (Homo sapiens, UniProt P23458); test: as above; settings: measured at 1 mM ATP
Procedure, shortened: as §1

Jak2 (a.a. 828-1132) = Jak2 (a.a. 828-1132) (Homo sapiens (Human), UniProt O60674); test: In vitro JAK kinase assay (HTRF, phosphorylation of a biotinylated peptide), JAK2; settings: measured at 1 mM ATP
Procedure, shortened: as §1

Jak2 (a.a. 828-1132), sequence (O60674 828-1132): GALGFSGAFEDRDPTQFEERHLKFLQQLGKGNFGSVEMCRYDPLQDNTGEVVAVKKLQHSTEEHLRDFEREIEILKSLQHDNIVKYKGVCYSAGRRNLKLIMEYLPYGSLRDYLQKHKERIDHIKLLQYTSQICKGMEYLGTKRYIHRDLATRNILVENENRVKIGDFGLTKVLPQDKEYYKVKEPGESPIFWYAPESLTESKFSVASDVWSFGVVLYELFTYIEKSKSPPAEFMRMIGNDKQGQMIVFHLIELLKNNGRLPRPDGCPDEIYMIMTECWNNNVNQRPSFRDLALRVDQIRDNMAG

SMILES	IC50 Ratio JAK2/JAK1 [1]	IC50 [2]	IC50 (Jak2 (a.a. 828-1132))
N#CCC1(n2cc(-c3c(C#N)cnc4[nH]ccc34)cn2)CN(C2CCN(C(=O)c3cc(C(F)(F)F)ncc3F)CC2)C1 [Example 356, 4-[1-(3-(Cyanomethyl)-1-{1-[5-fluoro-2-(trifluoromethyl)isonicotinoyl]piperidin-4-yl}azetidin-3-yl)-1H-pyrazol-4-yl]-1H-pyrrolo[2,3-b]pyridine-5-carbonitrile]	5.8	5 to 20 nM	50 to 100 nM
CS(=O)(=O)N1CCC(N2CC(CC#N)(n3cc(-c4c(C#N)cnc5[nH]ccc45)cn3)C2)CC1 [Example 357, 4-(1-{3-(Cyanomethyl)-1-[1-(methylsulfonyl)piperidin-4-yl]azetidin-3-yl}-1H-pyrazol-4-yl)-1H-pyrrolo[2,3-b]pyridine-5-carbonitrile]	3.8	≤ 5 nM	10 to 50 nM
N#CCC1(n2cc(-c3ncnc4[nH]ccc34)cn2)CN(C2C3COCC2CN(C(=O)c2ccnc(C(F)(F)F)c2F)C3)C1 (stereo not drawn) [Example 365, {1-{7-[3-Fluoro-2-(trifluoromethyl)isonicotinoyl]-3-oxa-7-azabicyclo[3.3.1]non-9-yl}-3-[4-(7H-pyrrolo[2,3-d]pyrimidin-4-yl)-1H-pyrazol-1-yl]azetidin-3-yl}acetonitrile]	15.5	≤ 5 nM	10 to 50 nM
CC(C)NC(=O)N1CCC(N2CC(CC#N)(n3cc(-c4ncnc5[nH]ccc45)cn3)C2)CC1 [Example 367, 4-{3-(cyanomethyl)-3-[4-(7H-pyrrolo[2,3-d]pyrimidin-4-yl)-1H-pyrazol-1-yl]azetidin-1-yl}-N-isopropylpiperidine-1-carboxamide]	33.8	≤ 5 nM	10 to 50 nM
CN(C)Cc1cc(C(=O)N2CCC(N3CC(CC#N)(n4cc(-c5ncnc6[nH]ccc56)cn4)C3)CC2)c(F)c(C(F)(F)F)n1 [Example 368, {1-{1-[6-[(dimethylamino)methyl]-3-fluoro-2-(trifluoromethyl)isonicotinoyl]piperidin-4-yl}-3-[4-(7H-pyrrolo[2,3-d]pyrimidin-4-yl)-1H-pyrazol-1-yl]azetidin-3-yl}acetonitrile]	54.2	≤ 5 nM	10 to 50 nM
CN(C)Cc1cc(C#N)cc(C(=O)N2CCC(N3CC(CC#N)(n4cc(-c5ncnc6[nH]ccc56)cn4)C3)CC2)c1 [Example 369, 3-[(4-{3-(cyanomethyl)-3-[4-(7H-pyrrolo[2,3-d]pyrimidin-4-yl)-1H-pyrazol-1-yl]azetidin-1-yl}piperidin-1-yl)carbonyl]-5-[(dimethylamino)methyl]benzonitrile]	43.8	≤ 5 nM	> 100 nM
CN(C)Cc1cc(C(=O)N2CCC(N3CC(CC#N)(n4cc(-c5ncnc6[nH]ccc56)cn4)C3)CC2)nc(C(F)(F)F)n1 [Example 370, {1-(1-{[6-[(dimethylamino)methyl]-2-(trifluoromethyl)pyrimidin-4-yl]carbonyl}piperidin-4-yl)-3-[4-(7H-pyrrolo[2,3-d]pyrimidin-4-yl)-1H-pyrazol-1-yl]azetidin-3-yl}acetonitrile]	55	≤ 5 nM	50 to 100 nM
CNCc1cc(C(=O)N2CCC(N3CC(CC#N)(n4cc(-c5ncnc6[nH]ccc56)cn4)C3)CC2)nc(C(F)(F)F)n1 [Example 371, {1-(1-{[6-[(methylamino)methyl]-2-(trifluoromethyl)pyrimidin-4-yl]carbonyl}piperidin-4-yl)-3-[4-(7H-pyrrolo[2,3-d]pyrimidin-4-yl)-1H-pyrazol-1-yl]azetidin-3-yl}acetonitrile trifluoroacetate salt]	65.3	≤ 5 nM	50 to 100 nM
N#CCC1(n2cc(-c3ncnc4[nH]ccc34)cn2)CN(C2CCN(C(=O)c3cc(CN4CCC4)nc(C(F)(F)F)n3)CC2)C1 [Example 372, {1-(1-{[6-(azetidin-1-ylmethyl)-2-(trifluoromethyl)pyrimidin-4-yl]carbonyl}piperidin-4-yl)-3-[4-(7H-pyrrolo[2,3-d]pyrimidin-4-yl)-1H-pyrazol-1-yl]azetidin-3-yl}acetonitrile]	67.3	≤ 5 nM	10 to 50 nM
CCN(CC)Cc1cc(C(=O)N2CCC(N3CC(CC#N)(n4cc(-c5ncnc6[nH]ccc56)cn4)C3)CC2)nc(C(F)(F)F)n1 [Example 373, {1-(1-{[6-[(diethylamino)methyl]-2-(trifluoromethyl)pyrimidin-4-yl]carbonyl}piperidin-4-yl)-3-[4-(7H-pyrrolo[2,3-d]pyrimidin-4-yl)-1H-pyrazol-1-yl]azetidin-3-yl}acetonitrile]	36.8	≤ 5 nM	10 to 50 nM
CCN(C)Cc1cc(C(=O)N2CCC(N3CC(CC#N)(n4cc(-c5ncnc6[nH]ccc56)cn4)C3)CC2)nc(C(F)(F)F)n1 [Example 374, {1-(1-{[6-{[ethyl(methyl)amino]methyl}-2-(trifluoromethyl)pyrimidin-4-yl]carbonyl}piperidin-4-yl)-3-[4-(7H-pyrrolo[2,3-d]pyrimidin-4-yl)-1H-pyrazol-1-yl]azetidin-3-yl}acetonitrile]	50	≤ 5 nM	10 to 50 nM
CN(C)Cc1cc(C(=O)N2CCC(N3CC(CC#N)(n4cc(-c5ncnc6[nH]ccc56)cn4)C3)CC2)cc(C(F)F)c1 [Example 375, {1-(1-{3-(difluoromethyl)-5-[(dimethylamino)methyl]benzoyl}piperidin-4-yl)-3-[4-(7H-pyrrolo[2,3-d]pyrimidin-4-yl)-1H-pyrazol-1-yl]azetidin-3-yl}acetonitrile]	12.7	≤ 5 nM	10 to 50 nM
N#CCC1(n2cc(-c3ncnc4[nH]ccc34)cn2)CN(C2CCN(C(=O)c3cc(CN4CC[C@H](F)C4)nc(C(F)(F)F)n3)CC2)C1 [Example 377, {1-(1-{[6-{[(3S)-3-fluoropyrrolidin-1-yl]methyl}-2-(trifluoromethyl)pyrimidin-4-yl]carbonyl}piperidin-4-yl)-3-[4-(7H-pyrrolo[2,3-d]pyrimidin-4-yl)-1H-pyrazol-1-yl]azetidin-3-yl}acetonitrile (trifluoroacetate salt: 4 TFA)]	35.7	≤ 5 nM	10 to 50 nM
N#CCC1(n2cc(-c3ncnc4[nH]ccc34)cn2)CN(C2CCN(C(=O)c3cc(CN4CC[C@@H](F)C4)nc(C(F)(F)F)n3)CC2)C1 [Example 378, {1-(1-{[6-{[(3R)-3-fluoropyrrolidin-1-yl]methyl}-2-(trifluoromethyl)pyrimidin-4-yl]carbonyl}piperidin-4-yl)-3-[4-(7H-pyrrolo[2,3-d]pyrimidin-4-yl)-1H-pyrazol-1-yl]azetidin-3-yl}acetonitrile (trifluoroacetate salt: 4 TFA)]	32.7	≤ 5 nM	10 to 50 nM
N#CCC1(n2cc(-c3ncnc4[nH]ccc34)cn2)CN(C2CCN(C(=O)c3cc(CN4CCC(F)(F)C4)nc(C(F)(F)F)n3)CC2)C1 [Example 379, {1-(1-{[6-[(3,3-difluoropyrrolidin-1-yl)methyl]-2-(trifluoromethyl)pyrimidin-4-yl]carbonyl}piperidin-4-yl)-3-[4-(7H-pyrrolo[2,3-d]pyrimidin-4-yl)-1H-pyrazol-1-yl]azetidin-3-yl}acetonitrile (trifluoroacetate salt: 4 TFA)]	36.9	≤ 5 nM	50 to 100 nM
